The text below walks through data of patent publication US8084502B2, “Use of agmatine for protection of retinal ganglion cells” (priority 2007, dated 2011).

Some results are limits rather than exact numbers.

Type in all cases: cell-based, rat
Test [1] has as its system RGC-5. Nature of the test: Hoechst 33342 and PI staining after hypoxia. As to conditions: hypoxia 48 hours; 100 μM of agmatine or 10 ng/mL of BDNF. Here is the method: The RGC-5 cell line, which is a RGC line developed from post-natal Sprague-Dawley rats, was grown in modified Dulbecco's Modified Eagle's Medium (DMEM; Gibco) supplemented with 10% of heat inactivated fetal bovine serum (Gibco) and 100 U/mL of penicillin and 100 μg/mL of streptomycin (Gibco). The cells were passaged every 2 to 3 days, and the cultures incubated at 37° C. in 5% of CO2 and air. […] For all experiments, cells were used at an 80% confluence. Cultures were transferred into a closed hypoxic chamber (Form a Scientific Co.) in which oxygen level (5% of O2, 5% of CO2, 90% of N2) and temperature (37° C.) were controlled. After washing twice with deoxygenated serum-free DMEM, cells were maintained in the hypoxic chamber. Control cells were not exposed to hypoxia. Agmatine or BDNF were added to the culture medium at the start of injury as indicated. Apoptotic or necrotic cell death was characterized by the use of Hoechst 33342 and PI double staining. Cells were stained with 10 μg/mL of Hoechst 33342 and 10 μg/mL of PI at 37° C. for 30 minutes. After washing twice with phosphate buffered saline (PBS), cells were imaged with a digital camera attached to a fluorescence microscope.

A further test concerns ERK. Put plainly: Western blot, phospho-ERK in hypoxic RGC-5. As to conditions: agmatine 100 μM, BDNF 10 ng/mL. Here is the method: (§1) The RGC-5 cell line, which is a RGC line developed from post-natal Sprague-Dawley rats, was grown in modified Dulbecco's Modified Eagle's Medium (DMEM; Gibco) supplemented with 10% of heat inactivated fetal bovine serum (Gibco) and 100 U/mL of penicillin and 100 μg/mL of streptomycin (Gibco). The cells were passaged every 2 to 3 days, and the cultures incubated at 37° C. in 5% of CO2 and air. […] For all experiments, cells were used at an 80% confluence. Cultures were transferred into a closed hypoxic chamber (Form a Scientific Co.) in which oxygen level (5% of O2, 5% of CO2, 90% of N2) and temperature (37° C.) were controlled. […] The protein concentrations in the resultant supernatants were measured with the Bradford reagent, and equal amounts of protein (40 μg) were boiled in Laemmli sample buffer, followed by being resolved by 10 or 15% SDS-PAGE. The proteins were transferred to polyvinylidene fluoride membranes (Immobilon; Millipore, Billerica, Mass.) and then probed overnight with antibodies against JNK, ERK p44/42, p38, NF-κB p65, phospho-JNK, phospho-ERK p44/42, phospho-p38, phospho-NF-κB, (3-actin and histone 3 as indicated (diluted 1:1000). The immunoreactive bands were detected with horseradish peroxidase-conjugated secondary antibodies and visualized by enhanced chemiluminescence.

Test [2] has as its system RGC-5. Nature of the test: LDH assay, TNF-α-induced cell death. Particulars: 100 μM of agmatine; for LDH release: 50 ng/mL of TNF-α. Here is the method: The RGC-5 cell line, which is an RGC line developed from post-natal Sprague-Dawley rats, was grown in modified DMEM (Gibco) supplemented with 10% of heat inactivated fetal bovine serum (Gibco) and 100 U/mL of penicillin and 100 μg/mL of streptomycin (Gibco). The cells were passaged every 2 to 3 days and incubated at 37° C. in 5% of CO2 and air. At cultivation, the cells had the same morphology. For all experiments, cells were used at 80% of confluence.
After washing twice with PBS, cells were cultured in serum-free DMEM and treated with either 10 or 50 ng/mL of recombinant rat TNF-α (Chemicon) for up to 48 hours. The control cells were not exposed to TNF-α. 100 μM of agmatine was added to the culture medium at the start of injury as indicated.
Cell viability was quantified by measuring the amounts of LDH released from the injured cells after TNF-α administration. LDH release is expressed as a value relative to the value of 100, which is the maximum LDH release that occurs after freezing each culture at −70° C. overnight and then rapidly thawing, thus inducing nearly complete cell damage. All experiments were performed in at least quadruplicate, and repeated at least eight times using cell cultures derived from different platings.

The subject of test [3] is RGC-5. Put plainly: LDH assay, hypoxia-induced cell death. As to conditions: for LDH release: relative to maximum LDH release = 100; for concentration at which cell death was reduced significantly (LDH assay): preliminary studies. Here is the method: The RGC-5 cell line, which is a RGC line developed from post-natal Sprague-Dawley rats, was grown in modified Dulbecco's Modified Eagle's Medium (DMEM; Gibco) supplemented with 10% of heat inactivated fetal bovine serum (Gibco) and 100 U/mL of penicillin and 100 μg/mL of streptomycin (Gibco). The cells were passaged every 2 to 3 days, and the cultures incubated at 37° C. in 5% of CO2 and air. […] For all experiments, cells were used at an 80% confluence.
Cultures were transferred into a closed hypoxic chamber (Form a Scientific Co.) in which oxygen level (5% of O2, 5% of CO2, 90% of N2) and temperature (37° C.) were controlled. After washing twice with deoxygenated serum-free DMEM, cells were maintained in the hypoxic chamber. Control cells were not exposed to hypoxia. Agmatine or BDNF were added to the culture medium at the start of injury as indicated.
Cell viability was quantified by measurement of LDH released by injured cells after hypoxic or normoxic culture for 12, 24, and 48 hours. LDH release is expressed as a value relative to the value of 100, which represents the maximum LDH release that occurred after freezing of each culture at −70° C. overnight and rapid thawing, which induces nearly complete cell damage. All experiments were performed in at least quadruplicate and repeated at least eight times using cell cultures derived from different platings. The preliminary studies with the LDH assay tested agmatine concentrations from 10 μM to 1 mM and BDNF concentrations from 5 ng/mL to 100 ng/mL.

For test [4], the system named is Total MAPKs (JNK, ERK, and p38). Put plainly: Western blot, total MAPKs in hypoxic RGC-5. Here is the method: as §1

With `N=C(N)NCCCCN` [agmatine], the “RGC loss (Hoechst-positive / PI-positive cells)” value with RGC-5 [1] is given as “RGC loss was prevented”. In the test on ERK, the “expression of phospho-ERKs” value is recorded as “did not significantly affect”. Also, the LDH release in the test with RGC-5 [2] (24 hours) was found to be 5.91±0.86%; with RGC-5 [2] (48 hours), 8.14±2.43%; with RGC-5 [3] (hypoxia 48 hours, 100 μM of agmatine) it was 25.60%; with RGC-5 [3] (hypoxia 48 hours, 500 μM of agmatine), 27.09%. In the test with RGC-5 [2] (all P<0.001), the “TNF-α-induced LDH release” value was “significantly inhibited”. Besides, in the test on RGC-5 [3] (hypoxia 48 hours, 100 μM of agmatine vs 10 ng/mL BDNF, P<0.001), the “suppression of LDH release compared with BDNF” value is “more effective in suppressing LDH release than 10 ng/mL BDNF”. Also, the “concentration at which cell death was reduced significantly (LDH assay)” value in the test on RGC-5 [3] (tested 10 μM to 1 mM) is at least 100 µM. In addition, the “Total MAPKs (JNK, ERK, and p38) and β-actin” value in test [4] was “no significant changes”.
As for “BDNF: recombinant human BDNF (R&D System), well-known protective neurotrophin for RGCs, used as comparator”, the “RGC loss (Hoechst-positive / PI-positive cells)” value with RGC-5 [1] was “RGC loss was prevented”. Further, in the test with ERK, the “expression of phospho-ERKs” value was “completely blocked the expression of phospho-ERKs after exposure to hypoxia for 3 and 6 hours, but had no effect thereafter”. For the same compound, the LDH release in the test with RGC-5 [3] (hypoxia 48 hours, 10 ng/mL of BDNF) was found to be 30.10%; in the test on RGC-5 [3] (hypoxia 48 hours, 50 ng/mL of BDNF) it was 33.67%; in the test on RGC-5 [3] (hypoxia 48 hours, 100 ng/mL of BDNF), 36.06%. Besides, the “concentration at which cell death was reduced significantly (LDH assay)” value in the test with RGC-5 [3] (tested 5 ng/mL to 100 ng/mL) is at least 10 ng/mL. In addition, the “Total MAPKs (JNK, ERK, and p38) and β-actin” value in test [4] was “no significant changes”.
